According to patent EP0107988A2, “Imidazo (1,2-a)quinolines, their salts, their preparation, their use as medicaments and compositions containing them” (ROUSSEL-UCLAF, priority 1982, dated 1984):

What follows are compounds tested against récepteurs des benzodiazépines (assay: Benzodiazepine receptor affinity: [3H]flunitrazepam binding, modified method of Squires and Braestrup). Conditions: concentration inhibiting by 50 % the specific binding of 0,6 nanomoles (3H) flunitrazépam; rat forebrain membrane preparations; read-out: CI50 (the source's name).
Parameters: species or system rats
Text: L'affinité des composés pour les récepteurs des benzodiazépines a été évaluée en utilisant un radioligand/^3H/flunitra- zépam et la méthode de Squires et Braestrup (Nature, 1977, 266,732) modifiée.
Les valeurs ci-dessus sont les concentrations nanomolaires du produit testé qui inhibent dans une proportion de 50 % la liaison spécifique de 0,6 nanomoles (^3H) flunitrazépam tant de préparations de membranes de cerveaux antérieurs de rats (CI50) nanomoles.

| Structure (SMILES) | IC50 [µM] |
| --- | --- |
| CCc1ccc2c(c1)c(OC)cc1nc(C(OC(C)=O)c3ccccc3)cn12 (stereo not shown) [Exemple 1] | 5 |
| CCc1ccc2c(c1)c(OC)cc1nc(C(=O)c3ccccc3)c(Br)n12 [Exemple 2, (1-bromo 7-éthyl 5-méthoxyimidazo/1,2-a/quinoléin-2-yl)phénylméthanone] | 3.2 |
| CCc1ccc2c(c1)c(OC)cc1nc(C(=O)c3ccccc3)c(Cl)n12 [Exemple 3, (1-chloro 7-éthyl 5-méthoxyimidazo/1,2-a/quinoléin-2-yl)phénylméthanone] | 0.975 |
| CCc1ccc2c(c1)c(O)cc1nc(C(=O)c3ccccc3)cn12 [Exemple 4, 2-benzoyl 7-éthylimidazo/1,2-a/quinoléin-501] | 0.43 |
| CCc1ccc2c(c1)c(OC)cc1nc(C(C)(O)c3ccccc3)cn12 (stereo not shown) [Exemple 5, 1-(7-éthyl 5-méthoxyimidazo/1,2-a/quinoléin-2-yl) 1-phényléthanol] | 8 |
| CCc1ccc2c(c1)c(OC(C)=O)cc1nc(C(=O)c3ccccc3)cn12 [Exemple 6, Acétatede 2-benzoyl 7-éthylimidazo/1,2-a/quinoléin-2-vle] | 0.395 |
| C=C(c1ccccc1)c1cn2c(cc(OC)c3cc(CC)ccc32)n1 [Exemple 7, Chlorhydratede 7-éthyl 5-méthoxy 2-(1-phénylvinyl) imidazo/1,2-a/quinoléine] | 0.12 |
| CCc1ccc2c(c1)c(OC)c(C)c1nc(C(=O)c3ccccc3)cn12 [Exemple 8, (7-éthyl 5-méthoxy 4-méthylimidazo/1,2-a/quinoléin-2-yl)phénylméthanone] | 0.007 |
| CCc1ccc2c(c1)c(C)cc1nc(C(=O)c3ccccc3)cn12 [Exemple 9] | 0.25 |
| CCc1ccc2c(c1)c(OC)c(CC)c1nc(C(=O)c3ccccc3)cn12 [Exemple 10, (4,7-diéthyl 5-méthoxyimidazo/1,2-a/quinoléin-2-yl) phénylméthanone] | 0.135 |
